The subject of this data set is CCRIS mutagenicity, Ames/micronucleus/aberration tests. The experiment in a line: CCRIS mutagenicity studies.
Setting [1] is: Test System: AMES SALMONELLA TYPHIMURIUM, Strain/Indicator: TA98, Metabolic Activation: NONE, Method: PREINCUBATION
The mark [2] stands for this setting: Test System: AMES SALMONELLA TYPHIMURIUM, Strain/Indicator: TA100, Metabolic Activation: NONE, Method: PREINCUBATION
The mark [3] stands for this setting: Test System: AMES SALMONELLA TYPHIMURIUM, Strain/Indicator: TA1535, Metabolic Activation: NONE, Method: PREINCUBATION
Where [4] appears, read: Test System: AMES SALMONELLA TYPHIMURIUM, Strain/Indicator: TA1537, Metabolic Activation: NONE, Method: PREINCUBATION

“Also recorded” adds a separate entry of the source. Active and inactive are the calls of the source. How the calls were made is not given here.

Results on 2 compounds are retold here after PubChem BioAssay AID1259407 (Chemical Carcinogenesis Research Information System (CCRIS), 2018).

Turning to `Oc1ccc(Cl)c(Cl)c1Cl`, the mutagenic call runs as follows: (End Point: IN VITRO CHROMOSOMAL ABERRATIONS, Test System: CHINESE HAMSTER LUNG CELLS (CHL), Metabolic Activation: NONE) “inactive; negative”; (End Point: IN VITRO CHROMOSOMAL ABERRATIONS, Test System: CHINESE HAMSTER LUNG CELLS (CHL), Metabolic Activation: RAT, LIVER, S-9, KC-400) “inactive; negative”; (End Point: IN VITRO CHROMOSOMAL ABERRATIONS, Test System: CHINESE HAMSTER OVARY CELLS (CHO), Metabolic Activation: NONE) “inactive; negative”; (End Point: IN VITRO CHROMOSOMAL ABERRATIONS, Test System: CHINESE HAMSTER OVARY CELLS (CHO), Metabolic Activation: RAT, LIVER, S-9, AROCLOR 1254) “active; positive (structural changes); positive only at highest dose where a total of 25”; (End Point: IN VITRO CHROMOSOMAL ABERRATIONS, Test System: CHL CELLS, Metabolic Activation: S-9) “inactive; positive (structural changes); multilaboratory comparison among 5 labs; 4 report; also recorded: inactive; positive (structural changes); multilaboratory comparison among 6 labs; 5 report”; (End Point: IN VITRO CHROMOSOMAL ABERRATIONS, Test System: CHO CELLS, Metabolic Activation: NONE) “inactive; positive (structural changes); multilaboratory comparison among 5 labs; 4 report; also recorded: inactive; negative; multilaboratory comparison among 5 labs; 1 reported weakly positive; 4; also recorded: inactive; negative; multilaboratory comparison among 4 labs; negative except for 1 weak po”. In addition, the mutagenic call reads like this: (End Point: IN VITRO CHROMOSOMAL ABERRATIONS, Test System: CHO CELLS, Metabolic Activation: S-9) “active; positive (structural changes); multilaboratory comparison among 6 labs; all repo; also recorded: inactive; positive (structural changes); multilaboratory comparison among 5 labs; 2 report”; (Test System: AMES SALMONELLA TYPHIMURIUM, Strain/Indicator: TA97, Metabolic Activation: HAMSTER, LIVER, S-9, AROCLOR 1254 (10 OR 30%), Method: PREINCUBATION) “inactive; negative”; (Test System: AMES SALMONELLA TYPHIMURIUM, Strain/Indicator: TA97, Metabolic Activation: NONE, Method: PREINCUBATION) “inactive; negative”; (Test System: AMES SALMONELLA TYPHIMURIUM, Strain/Indicator: TA97, Metabolic Activation: RAT, LIVER, S-9, AROCLOR 1254 (10 OR 30%), Method: PREINCUBATION) “inactive; negative”; (Test System: AMES SALMONELLA TYPHIMURIUM, Strain/Indicator: TA98, Metabolic Activation: HAMSTER, LIVER, S-9, AROCLOR 1254 (10 OR 30%), Method: PREINCUBATION) “inactive; negative”; under setting [1], “inactive; negative”. Also, the mutagenic call by setting is: (Test System: AMES SALMONELLA TYPHIMURIUM, Strain/Indicator: TA98, Metabolic Activation: RAT, LIVER, S-9, AROCLOR 1254 (10 OR 30%), Method: PREINCUBATION) “inactive; negative”; (Test System: AMES SALMONELLA TYPHIMURIUM, Strain/Indicator: TA100, Metabolic Activation: HAMSTER, LIVER, S-9, AROCLOR 1254 (10 OR 30%), Method: PREINCUBATION) “inactive; negative”; under setting [2], “inactive; negative”; (Test System: AMES SALMONELLA TYPHIMURIUM, Strain/Indicator: TA100, Metabolic Activation: RAT, LIVER, S-9, AROCLOR 1254 (10 OR 30%), Method: PREINCUBATION) “inactive; negative”; (Test System: AMES SALMONELLA TYPHIMURIUM, Strain/Indicator: TA1535, Metabolic Activation: HAMSTER, LIVER, S-9, AROCLOR 1254 (10 OR 30%), Method: PREINCUBATION) “inactive; negative”; under setting [3], “inactive; negative”. In addition, the mutagenic call is “inactive; negative” (Test System: AMES SALMONELLA TYPHIMURIUM, Strain/Indicator: TA1535, Metabolic Activation: RAT, LIVER, S-9, AROCLOR 1254 (10 OR 30%), Method: PREINCUBATION); “inactive; negative” (Test System: AMES SALMONELLA TYPHIMURIUM, Strain/Indicator: TA1537, Metabolic Activation: HAMSTER, LIVER, S-9, AROCLOR 1254 (30%), Method: PREINCUBATION); “inactive; negative” under setting [4]; “inactive; negative” (Test System: AMES SALMONELLA TYPHIMURIUM, Strain/Indicator: TA1537, Metabolic Activation: RAT, LIVER, S-9, AROCLOR 1254 (30%), Method: PREINCUBATION).
In the case of `NCCNCCNCCN`, the mutagenic call runs as follows: (Test System: AMES SALMONELLA TYPHIMURIUM, Strain/Indicator: TA98, Metabolic Activation: HAMSTER, LIVER, S-9, AROCLOR 1254 (10%), Method: PREINCUBATION) “active; positive”; under setting [1], “active; positive”; (Test System: AMES SALMONELLA TYPHIMURIUM, Strain/Indicator: TA98, Metabolic Activation: NONE, Method: STANDARD PLATE) “active; positive”; (Test System: AMES SALMONELLA TYPHIMURIUM, Strain/Indicator: TA98, Metabolic Activation: RAT, LIVER, S-9, AROCLOR 1254 (10%), Method: PREINCUBATION) “active; positive”; (Test System: AMES SALMONELLA TYPHIMURIUM, Strain/Indicator: TA98, Metabolic Activation: RAT, LIVER, S-9, PCB, Method: PREINCUBATION) “active; positive”; (Test System: AMES SALMONELLA TYPHIMURIUM, Strain/Indicator: TA100, Metabolic Activation: HAMSTER, LIVER, S-9, AROCLOR 1254 (10%), Method: PREINCUBATION) “active; positive”. Further, the mutagenic call runs as follows: under setting [2], “active; positive”; (Test System: AMES SALMONELLA TYPHIMURIUM, Strain/Indicator: TA100, Metabolic Activation: NONE, Method: STANDARD PLATE) “active; positive”; (Test System: AMES SALMONELLA TYPHIMURIUM, Strain/Indicator: TA100, Metabolic Activation: RAT, LIVER, S-9, AROCLOR 1254 (10%), Method: PREINCUBATION) “active; positive”; (Test System: AMES SALMONELLA TYPHIMURIUM, Strain/Indicator: TA100, Metabolic Activation: RAT, LIVER, S-9, PCB, Method: PREINCUBATION) “active; positive”; (Test System: AMES SALMONELLA TYPHIMURIUM, Strain/Indicator: TA1535, Metabolic Activation: HAMSTER, LIVER, S-9, AROCLOR 1254 (10%), Method: PREINCUBATION) “active; positive”; under setting [3], “active; positive”. Further, the mutagenic call was “inactive; negative” (Test System: AMES SALMONELLA TYPHIMURIUM, Strain/Indicator: TA1535, Metabolic Activation: NONE, Method: STANDARD PLATE); “active; positive” (Test System: AMES SALMONELLA TYPHIMURIUM, Strain/Indicator: TA1535, Metabolic Activation: RAT, LIVER, S-9, AROCLOR 1254 (10%), Method: PREINCUBATION); “active; positive” (Test System: AMES SALMONELLA TYPHIMURIUM, Strain/Indicator: TA1535, Metabolic Activation: RAT, LIVER, S-9, AROCLOR 1254, Method: STANDARD PLATE); “active; positive” (Test System: AMES SALMONELLA TYPHIMURIUM, Strain/Indicator: TA1537, Metabolic Activation: HAMSTER, LIVER, S-9, AROCLOR 1254 (10%), Method: PREINCUBATION); “active; positive” under setting [4]; “active; positive” (Test System: AMES SALMONELLA TYPHIMURIUM, Strain/Indicator: TA1537, Metabolic Activation: NONE, Method: STANDARD PLATE). In addition, the mutagenic call is “active; positive” (Test System: AMES SALMONELLA TYPHIMURIUM, Strain/Indicator: TA1537, Metabolic Activation: RAT, LIVER, S-9, AROCLOR 1254 (10%), Method: PREINCUBATION); “inactive; negative” (Test System: AMES SALMONELLA TYPHIMURIUM, Strain/Indicator: TA1537, Metabolic Activation: RAT, LIVER, S-9, AROCLOR 1254, Method: STANDARD PLATE); “active; positive” (Test System: AMES SALMONELLA TYPHIMURIUM, Strain/Indicator: TA1538, Metabolic Activation: NONE, Method: STANDARD PLATE); “inactive; negative” (Test System: AMES SALMONELLA TYPHIMURIUM, Strain/Indicator: TA1538, Metabolic Activation: RAT, LIVER, S-9, AROCLOR 1254, Method: STANDARD PLATE); “inactive; negative” (Test System: CHINESE HAMSTER OVARY, Strain/Indicator: CHO (HGPRT)/6-THIOGUANINE, Metabolic Activation: NONE); “inactive; negative” (Test System: CHINESE HAMSTER OVARY, Strain/Indicator: CHO (HGPRT)/6-THIOGUANINE, Metabolic Activation: RAT, LIVER, S-9, AROCLOR 1254). Further, the mutagenic call (Test System: UDS RAT HEPATOCYTES, Strain/Indicator: THY INCORP, Metabolic Activation: NONE, Method: SCINTILLATION SPECTROMETRY) is “active; positive”.
